Source: patent US20060276340A1, “HERBICIDE COMPOSITION COMPRISING PYRIBAMBENZ-PROPYL OR PYRIBAMBENZ-ISOPROPYL” (Zhejiang Chem-Tech Group Co., Ltd., priority 2003, published 2006)

Columns and labels:
Assay type in all cases: in vivo
[1] = test system: Galium aparine; test: greenhouse pot test, post-emergence early stage treatment; conditions: GALAP 7˜8 leaves
Protocol: (§1) The test soil is a formulated sandy loam soil. 9.5 centimeter diameter pots are used for herbicidal activity test.
(§2) The pots for post-emergence treatment are placed into a greenhouse and incubated for 7 to 9 days, and then subjected to leave treatment by spraying. The preparation liquid for the treatment prepared by mixing individual single-herbicides was diluted with water to the desired dosage.
(§3) The treated pots stood for one day, then were placed in a greenhouse and watered regularly. The herbicidal activities of the compositions were evaluated by visual examination after incubating for 14 to 21 days.
(§4) The herbicidal activities of the compositions were evaluated by plant symptoms such as stunting, deformity, chlorosis, and whitening. 0 represents that the compositions have no herbicidal effect or have safety to crops. 100 represents that the weeds or crops were completely killed.

[2] = test system: Cerastium arvense; test: as above; conditions: CERAR 3˜4 leaves
Protocol: as §1, §2, §3, §4

[3] = test system: Beckmannia syzigachne; test: as above; conditions: BECSY 2˜3 leaves
Protocol: as §1, §2, §3, §4

[4] = test system: Poa annua; test: as above; conditions: POAAN 2˜3 leaves
Protocol: as §1, §2, §3, §4

[5] = test system: Galium aparine; test: greenhouse pot test, post-emergence treatment; conditions: GALAP 7˜8 leaves
Protocol: as §1, §2, §3, §4

[6] = test system: Cerastium arvense; test: greenhouse pot test, post-emergence treatment; conditions: CERAR 6 leaves
Protocol: as §1, §2, §3, §4

[7] = test system: Polypogon fugax; test: greenhouse pot test, post-emergence treatment; conditions: POLFU 4˜4.5 leaves
Protocol: as §1, §2, §3, §4

[8] = test system: Alopecurus aequalis; test: greenhouse pot test, post-emergence treatment; conditions: ALOAE 3 leaves
Protocol: as §1, §2, §3, §4

[9] = test system: Galium aparine; test: greenhouse pot test, pre-emergence treatment; conditions: GALAP
Protocol: as §1
(§5) The soil in the pot for the pre-emergence test was sprayed one day after planting. The preparation liquid for the treatment prepared by mixing individual single-herbicides was diluted with water to the desired dosage.
as §3, §4

[10] = test system: Cerastium arvense; test: greenhouse pot test, pre-emergence treatment; conditions: CERAR
Protocol: as §1, §5, §3, §4

[11] = test system: Polypogon fugax; test: greenhouse pot test, pre-emergence treatment; conditions: POLFU
Protocol: as §1, §5, §3, §4

[12] = test system: Alopecurus aequalis; test: greenhouse pot test, pre-emergence treatment; conditions: ALOAE
Protocol: as §1, §5, §3, §4

[13] = test system: weeds in rape field; test: weed control in rape field, descriptive statements
[14] = test system: Digitrria sanguinalis; test: greenhouse pot test, Tables 1-2; conditions: DIGSA 3 leaves
Protocol: as §1, §5, §2, §3, §4

[15] = test system: Beckmannia syzigachne; test: greenhouse pot test, Tables 1-2; conditions: BECSY 2 leaves
Protocol: as §1, §5, §2, §3, §4

[16] = test system: Polypogon fugax; test: greenhouse pot test, Tables 1-2; conditions: POLFU 3-4 leaves
Protocol: as §1, §5, §2, §3, §4

[17] = test system: Poa annua; test: greenhouse pot test, Tables 1-2; conditions: POAAN 3 leaves
Protocol: as §1, §5, §2, §3, §4

[18] = test system: Alopecurus aequalis; test: greenhouse pot test, Tables 1-2
Protocol: as §1, §5, §2, §3, §4

CCOc1nc(NC)nc(NC(=O)NS(=O)(=O)c2ccccc2C(=O)O)n1 [ethametsulfuron]
visual evaluation of weed effects ([1]; ethametsulfuron 6 g/ha): 90% | visual evaluation of weed effects ([1]; ethametsulfuron 9 g/ha): 90% | visual evaluation of weed effects ([2]; ethametsulfuron 6 g/ha): 90% | visual evaluation of weed effects ([2]; ethametsulfuron 9 g/ha): 90% | visual evaluation of weed effects ([3]; ethametsulfuron 6 g/ha): 40% | visual evaluation of weed effects ([3]; ethametsulfuron 9 g/ha): 40% | visual evaluation of weed effects ([4]; ethametsulfuron 6 g/ha): 70% | visual evaluation of weed effects ([4]; ethametsulfuron 9 g/ha): 80% | visual evaluation of weed effects ([5]; 6 g/ha): 85% | visual evaluation of weed effects ([5]; 7.5 g/ha): 90% | visual evaluation of weed effects ([5]; 9 g/ha): 90% | visual evaluation of weed effects ([6]; 6 g/ha): 90% | visual evaluation of weed effects ([6]; 7.5 g/ha): 90% | visual evaluation of weed effects ([6]; 9 g/ha): 90% | visual evaluation of weed effects ([7]; 6 g/ha): 60% | visual evaluation of weed effects ([7]; 7.5 g/ha): 60% | visual evaluation of weed effects ([7]; 9 g/ha): 70% | visual evaluation of weed effects ([8]; 6 g/ha): 90% | visual evaluation of weed effects ([8]; 7.5 g/ha): 90% | visual evaluation of weed effects ([8]; 9 g/ha): 90% | visual evaluation of weed effects ([9]; 6 g/ha): 10% | visual evaluation of weed effects ([9]; 7.5 g/ha): 40% | visual evaluation of weed effects ([9]; 9 g/ha): 70% | visual evaluation of weed effects ([10]; 6 g/ha): 85% | visual evaluation of weed effects ([10]; 7.5 g/ha): 90% | visual evaluation of weed effects ([10]; 9 g/ha): 95% | visual evaluation of weed effects ([11]; 6 g/ha): 60% | visual evaluation of weed effects ([11]; 7.5 g/ha): 70% | visual evaluation of weed effects ([11]; 9 g/ha): 75% | visual evaluation of weed effects ([12]; 6 g/ha): 80% | visual evaluation of weed effects ([12]; 7.5 g/ha): 90% | visual evaluation of weed effects ([12]; 9 g/ha): 95% | weed control ([13]; grass weeds): rather moderate control | weed control ([13]; most of broadleaf weeds): remarkable control

CCOC(=O)C(C)Oc1ccc(Oc2cnc3cc(Cl)ccc3n2)cc1 (stereo not shown) [quizalofop-ethyl]
visual evaluation of weed effects ([1]; quizalofop-ethyl 6 g/ha): 0% | visual evaluation of weed effects ([1]; quizalofop-ethyl 9 g/ha): 0% | visual evaluation of weed effects ([1]; quizalofop-ethyl 12 g/ha): 0% | visual evaluation of weed effects ([1]; quizalofop-ethyl 15 g/ha): 0% | visual evaluation of weed effects ([2]; quizalofop-ethyl 6 g/ha): 0% | visual evaluation of weed effects ([2]; quizalofop-ethyl 9 g/ha): 0% | visual evaluation of weed effects ([2]; quizalofop-ethyl 12 g/ha): 0% | visual evaluation of weed effects ([2]; quizalofop-ethyl 15 g/ha): 0% | visual evaluation of weed effects ([3]; quizalofop-ethyl 6 g/ha): 98% | visual evaluation of weed effects ([3]; quizalofop-ethyl 9 g/ha): 100% | visual evaluation of weed effects ([3]; quizalofop-ethyl 12 g/ha): 100% | visual evaluation of weed effects ([3]; quizalofop-ethyl 15 g/ha): 100% | visual evaluation of weed effects ([4]; quizalofop-ethyl 6 g/ha): 0% | visual evaluation of weed effects ([4]; quizalofop-ethyl 9 g/ha): 0% | visual evaluation of weed effects ([4]; quizalofop-ethyl 12 g/ha): 50% | visual evaluation of weed effects ([4]; quizalofop-ethyl 15 g/ha): 60% | visual evaluation of weed effects ([14]; 6 g/ha): 100% | visual evaluation of weed effects ([14]; 9 g/ha): 100% | visual evaluation of weed effects ([14]; 12 g/ha): 100% | visual evaluation of weed effects ([14]; 15 g/ha): 100% | visual evaluation of weed effects ([15]; 6 g/ha): 95% | visual evaluation of weed effects ([15]; 9 g/ha): 95% | visual evaluation of weed effects ([15]; 12 g/ha): 98% | visual evaluation of weed effects ([15]; 15 g/ha): 98% | visual evaluation of weed effects ([16]; 6 g/ha): 30% | visual evaluation of weed effects ([16]; 9 g/ha): 100% | visual evaluation of weed effects ([16]; 12 g/ha): 100% | visual evaluation of weed effects ([16]; 15 g/ha): 100% | visual evaluation of weed effects ([17]; 6 g/ha): 0% | visual evaluation of weed effects ([17]; 9 g/ha): 10% | visual evaluation of weed effects ([17]; 12 g/ha): 10% | visual evaluation of weed effects ([17]; 15 g/ha): 10% | visual evaluation of weed effects ([18]; ALOAE 0 leaf, 6 g/ha): 85% | visual evaluation of weed effects ([18]; ALOAE 0 leaf, 9 g/ha): 85% | visual evaluation of weed effects ([18]; ALOAE 0 leaf, 12 g/ha): 85% | visual evaluation of weed effects ([18]; ALOAE 0 leaf, 15 g/ha): 85% | visual evaluation of weed effects ([18]; ALOAE 3 leaves, 6 g/ha): 98% | visual evaluation of weed effects ([18]; ALOAE 3 leaves, 9 g/ha): 100% | visual evaluation of weed effects ([18]; ALOAE 3 leaves, 12 g/ha): 100% | visual evaluation of weed effects ([18]; ALOAE 3 leaves, 15 g/ha): 100% | weed control ([13]; Poa annua): weak activity | weed control ([13]; most of grasses, even herbicide-resistant sclerochloa kengiana and Beckmannia syzigachne): excellent control
